Laboratory results published in patent publication US20230203025A1, “ENHANCERS OF PARTICULATE GUANYLYL CYCLASE RECEPTOR A” (Mayo Foundation for Medical Education and Research, priority 2020, published 2023).

Legend:
[1] = LogD; format: physicochemical; conditions: pH 7.4
[2] = molecular target: T1, human GC-A (Homo sapiens, UniProt P16066); assay: ex vivo cGMP generation in HEK293 GC-A cells incubated with human plasma; format: cell-based
T1 construct: expressed in transfected cells; host or cells: HEK293
T1 sequence (P16066 33-1061): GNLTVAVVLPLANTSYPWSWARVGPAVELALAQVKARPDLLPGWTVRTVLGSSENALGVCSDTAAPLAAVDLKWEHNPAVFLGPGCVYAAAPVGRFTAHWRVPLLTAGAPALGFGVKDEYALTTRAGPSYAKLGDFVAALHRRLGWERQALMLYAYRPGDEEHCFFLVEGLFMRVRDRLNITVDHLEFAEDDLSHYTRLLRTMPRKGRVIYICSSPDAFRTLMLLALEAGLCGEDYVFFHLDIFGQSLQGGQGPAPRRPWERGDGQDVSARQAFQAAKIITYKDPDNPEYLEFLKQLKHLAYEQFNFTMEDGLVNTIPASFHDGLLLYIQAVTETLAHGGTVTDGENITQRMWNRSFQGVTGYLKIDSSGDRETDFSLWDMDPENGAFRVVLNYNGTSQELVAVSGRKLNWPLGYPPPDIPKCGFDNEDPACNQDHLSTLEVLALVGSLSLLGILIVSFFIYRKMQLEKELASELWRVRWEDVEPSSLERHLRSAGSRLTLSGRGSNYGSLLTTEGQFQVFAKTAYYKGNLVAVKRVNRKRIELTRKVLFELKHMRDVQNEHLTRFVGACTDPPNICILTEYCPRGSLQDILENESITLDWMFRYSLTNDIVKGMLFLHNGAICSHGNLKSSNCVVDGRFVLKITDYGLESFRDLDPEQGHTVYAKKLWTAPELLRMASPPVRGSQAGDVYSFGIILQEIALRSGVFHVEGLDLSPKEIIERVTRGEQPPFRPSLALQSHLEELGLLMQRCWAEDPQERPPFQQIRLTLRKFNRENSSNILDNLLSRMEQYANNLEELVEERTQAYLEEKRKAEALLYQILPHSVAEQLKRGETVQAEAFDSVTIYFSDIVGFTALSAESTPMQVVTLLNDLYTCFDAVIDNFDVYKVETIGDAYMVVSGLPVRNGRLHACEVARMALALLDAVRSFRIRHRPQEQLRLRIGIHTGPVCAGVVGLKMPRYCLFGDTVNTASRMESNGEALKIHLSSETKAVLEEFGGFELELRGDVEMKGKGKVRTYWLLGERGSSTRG
T1 sequence (P01160 124-151 partner limits assumed): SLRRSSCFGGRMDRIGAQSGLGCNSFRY
Experimental: Methods: Stored human plasma samples from normal subjects and patients with hypertension and HF were utilized. The details of the recruitment of these participants are previously reported. All participants gave written informed consent and the Institutional Review Board (IRB) at Mayo Clinic approved this study. […] HEK293 overexpressing human GC-A were cultured and grown as described above. Cells were grown in 48-well plates to 80-90% confluence. On the day of the experiment, cells were pre-incubated with Compound 19 at doses of 1, 5 or 10 μM and without (Veh) in 250 μL treatment buffer for 5 min at 37° C. 25 μL of human plasma was then added and incubated for additional 10 min. After, cells were washed with PBS once, lysed with 0.1M HCl and intracellular cGMP levels were measured in the lysate using a commercial cGMP ELISA kit (Enzo Life Sciences, Farmingdale, N.Y.) as instructed by the manufacturer.

logD [1]: 3.04
cGMP potency by plasma cohort ([2]; HF plasma, highest circulating ANP and BNP): greatest cGMP potency
Structure (SMILES): CN(C)CCN1CCCC(C(=O)Nc2nc3c(F)cc(F)cc3s2)C1 (stereo not drawn) [Compound 19]
generation of cGMP levels in HEK293 GC-A cells ([2]; 1, 5 or 10 μM with human plasma from normal, hypertension and HF cohorts): potentiated the generation of cGMP levels
